# According to PMC10790229 (Journal of medicinal chemistry, 2023):
# Like-named read-outs stand apart in the source and are kept apart here.
# Assays:
# [1] = in vivo, cited from earlier work
# [2] = system: hexameric HIV-1 CA NL4.3 protein; experiment: SPR binding to disulfide-stabilized hexameric HIV-1 CA
# [3] = biological target: hexameric HIV-1 CA NL4.3 protein (Human immunodeficiency virus type 1, UniProt P12493); experiment: as above; conditions: for Residence Time Hexamer / koff Hexamer: CA hexamer; for Kd: read-out: KD Hexamer, CA hexamer
# in vitro [4] = conditions: human, microsomes
# [5] = human
# HIV-1 CA-NC = HIV-1 CA-NC (Human immunodeficiency virus type 1 group M subtype B, UniProt P12493); experiment: FRET-based in vitro CA assembly assay; format: biochemical; conditions: 50 μM compound
# [6] = biological target: reverse transcriptase (RT) (Human immunodeficiency virus type 1 group M subtype B, UniProt P04585); experiment: In vitro reverse transcriptase inhibition assay; format: biochemical, HIV-1; conditions: 900 nM
# [7] = biological target: CPSF6 peptide binding to hexameric HIV-1 CA NL4.3 protein (Human immunodeficiency virus type 1, UniProt P12493); experiment: SPR-based CPSF6 peptide competition assay; conditions: read-out: IC50 CPSF6 peptide competition, CA hexamer
# HIV-1 = format: cell-based; conditions: 1 μM compound; DMSO = 100
# in vitro [8] = format: in vitro ADME; conditions: human, plasma
# HIV-2 ROD = experiment: Anti-HIV-2 activity in MT-4 cells; format: cell-based
# HIV-1 IIIB = experiment: Anti-HIV-1 activity in MT-4 cells; format: cell-based; conditions: for fold improvement of anti-HIV-1 potency over 11L / fold improvement of anti-HIV-1 potency over PF74 / SI IIIB (CC50/EC50): HIV-1 IIIB; for fold improvement of anti-HIV-1 potency over 11L / fold improvement of anti-HIV-1 potency over PF74 / Ratio IIIB(EC50)/ROD(EC50) / SI IIIB (CC50/EC50): MT-4 cells; for EC50: Human immunodeficiency virus 1, IIIB, MT4, read-out: EC50 IIIB
# [9] = Cytotoxicity in uninfected MT-4 cells; format: cell-based; conditions: human
# [10] = system: p24 content of produced pseudoviruses; experiment: ELISA-based quantification of capsid; format: cell-based, HIV-1; conditions: compound at 10× over EC50
# [11] = biological target: monomeric HIV-1 CA NL4.3 protein (Human immunodeficiency virus type 1 group M subtype B, UniProt P12493); experiment: SPR binding to monomeric HIV-1 CA; conditions: for Residence Time Monomer / koff Monomer: SPR, CA monomer
# [12] = In vivo pharmacokinetic study in SD rats; conditions: Sprague-Dawley, rat
# MT-4 cells = experiment: Cytotoxicity in uninfected MT-4 cells; format: cell-based
# [13] = Human immunodeficiency virus 2, MT4, read-out: EC50 ROD
# [14] = read-out: EC50 ROD, 50% protection of MT-4 cells against HIV-induced cytotoxicity, HIV-2 ROD
compound,measurement,setting,value
"CC(C)(C#Cc1ccc(-c2ccc(Cl)c3c(NS(C)(=O)=O)nn(CC(F)(F)F)c23)c([C@H](Cc2cc(F)cc(F)c2)NC(=O)Cn2nc(C(F)(F)F)c3c2C(F)(F)[C@@H]2C[C@H]32)n1)S(C)(=O)=O [LEN, Lenacapavir]",oral half-life T1/2,[1]; po,240 to 288 h
same,subcutaneous half-life T1/2,[1]; sc,8–12 weeks
"COc1ccc(-n2c([C@H](Cc3cc(F)cc(F)c3)NC(=O)CN3CCN(S(=O)(=O)c4ccc(N)cc4)CC3=O)nc3ccccc3c2=O)cc1 [12a2, (S)-2-(4-((4-Aminophenyl)sulfonyl)-2-oxopiperazin-1-yl)-N-(2-(3,5-difluorophenyl)-1-(3-(4-methoxyphenyl)-4-oxo-3,4-dihydroquinazolin-2-yl)ethyl)acetamide]",Ratio KD Monomer/KD Hexamer,[2],1.490
same,fold increase in affinity toward the CA hexamer compared to 11L,[3],2 fold
same,Residence Time Hexamer,[3],0.321 min
same,koff Hexamer,[3],0.052 ± 0.005 s⁻¹
same,Kd,[3],561 ± 31 nM
same,CLint scaled,in vitro [4],129 mL/min/kg
same,half-life,in vitro [4],9.7 min
same,microsomal CLint,in vitro [4],143 µL/min/mg
same,remaining at 1 h,in vitro [4]; % Remaining (NCF = 60 min),107%
same,remaining at 1 h,in vitro [4]; % Remaining (T = 60 min),1.1%
same,"intrinsic CL in microsomes, CLint(mic)",[5],143.4 mL/min/kg
same,effect on CA assembly,HIV-1 CA-NC,enhance CA assembly
same,RT activity compared to RT control,[6],about 80%
same,IC50,[7],189 ± 89.8 nM
same,% Infection Early Stage,HIV-1,0.092 ± 0.013%
same,% Infection Late Stage,HIV-1,0.019 ± 0.002%
same,remaining at 2 h,in vitro [8],110%
same,SI ROD (CC50/EC50),"HIV-2 ROD; HIV-2 ROD, MT-4 cells",>1736.11
same,fold improvement of anti-HIV-2 potency over PF74,"HIV-2 ROD; HIV-2 ROD, MT-4 cells",approximately 40 fold
same,EC50,HIV-2 ROD; [13],100 ± 10 nM
same,fold improvement of anti-HIV-1 potency over 11L,HIV-1 IIIB,2.5 fold
same,fold improvement of anti-HIV-1 potency over PF74,HIV-1 IIIB,7.3 fold
same,EC50,HIV-1 IIIB,110 ± 30 nM
same,Ratio IIIB(EC50)/ROD(EC50),HIV-1 IIIB,1.10
same,CC50,[9],> 178000 nM
same,p24 content of the produced virus,[10],did not change significantly
same,Kd,[11],838 ± 170 nM
same,Residence Time Monomer,[11],0.203 min
same,koff Monomer,[11],0.082 ± 0.011 s⁻¹
"Nc1ccc(S(=O)(=O)N2CCN(CC(=O)N[C@@H](Cc3cc(F)cc(F)c3)c3nc4ccccc4c(=O)n3-c3ccc(S(=O)(=O)N4CCOCC4)cc3)C(=O)C2)cc1 [21a2, (S)-2-(4-((4-Aminophenyl)sulfonyl)-2-oxopiperazin-1-yl)-N-(2-(3,5-difluorophenyl)-1-(3-(4-(morpholinosulfonyl)phenyl)-4-oxo-3,4-dihydroquinazolin-2-yl)ethyl)acetamide]",Ratio KD Monomer/KD Hexamer,[2],1.230
same,Residence Time Hexamer,[3],1.389 min
same,koff Hexamer,[3],0.012 ± 0.000 s⁻¹
same,Kd,[3],199 ± 19 nM
same,CLint scaled,in vitro [4],282 mL/min/kg
same,half-life,in vitro [4],4.4 min
same,microsomal CLint,in vitro [4],313 µL/min/mg
same,remaining at 1 h,in vitro [4]; % Remaining (NCF = 60 min),94.4%
same,remaining at 1 h,in vitro [4]; % Remaining (T = 60 min),0.2%
same,"intrinsic CL in microsomes, CLint(mic)",[5],312.7 mL/min/kg
same,effect on CA assembly,HIV-1 CA-NC,enhance CA assembly
same,AUC,"[12]; iv, 2 mg/kg",574 ± 151 ng·h/mL
same,AUC(0-t),"[12]; iv, 2 mg/kg",572 ± 151 ng·h/mL
same,C0,"[12]; iv, 2 mg/kg",2980 ± 545 ng/mL
same,Cmax,"[12]; iv, 2 mg/kg",1650 ± 361 ng/mL
same,MRT,"[12]; iv, 2 mg/kg",17 ± 2.81 min
same,Tmax,"[12]; iv, 2 mg/kg",4.98 min
same,Vd,"[12]; iv, 2 mg/kg",2.58 ± 0.707 L/kg
same,half-life,"[12]; iv, 2 mg/kg",30.8 ± 10.6 min
same,clearance,"[12]; iv, 2 mg/kg, CL (i.v.), SD rat, i.v. 2 mg/kg",60.5 mL/min/kg
same,AUC,"[12]; po, 20 mg/kg",37.3 ng·h/mL
same,AUC(0-t),"[12]; po, 20 mg/kg",10.8 ± 17.4 ng·h/mL
same,Cmax,"[12]; po, 20 mg/kg",6.58 ± 8.24 ng/mL
same,MRT,"[12]; po, 20 mg/kg",182 min
same,Tmax,"[12]; po, 20 mg/kg",20 ± 8.64 min
same,half-life,"[12]; po, 20 mg/kg",121 min
same,RT activity compared to RT control,[6],about 80%
same,IC50,[7],163 ± 47.1 nM
same,% Infection Early Stage,HIV-1,0.109 ± 0.046%
same,% Infection Late Stage,HIV-1,0.017 ± 0.003%
same,remaining at 2 h,in vitro [8],102%
same,SI ROD (CC50/EC50),"HIV-2 ROD; HIV-2 ROD, MT-4 cells",>1923.08
same,EC50,HIV-2 ROD; [13],80 ± 10 nM
same,SI IIIB (CC50/EC50),HIV-1 IIIB,>1329.79
same,fold improvement of anti-HIV-1 potency over 11L,HIV-1 IIIB,2.5 fold
same,fold improvement of anti-HIV-1 potency over PF74,HIV-1 IIIB,7.3 fold
same,EC50,HIV-1 IIIB,110 ± 50 nM
same,Ratio IIIB(EC50)/ROD(EC50),HIV-1 IIIB,1.38
same,CC50,[9],> 152000 nM
same,p24 content of the produced virus,[10],did not change significantly
same,Kd,[11],244 ± 37 nM
same,Residence Time Monomer,[11],0.417 min
same,koff Monomer,[11],0.040 ± 0.007 s⁻¹
"COc1ccc(N(C)C(=O)[C@H](Cc2ccccc2)NC(=O)CN2CCN(S(=O)(=O)c3ccc(N)cc3)CC2=O)cc1 [11L, reference compound]",EC50,HIV-1 IIIB,280 ± 90 nM
same,CC50,[9],198000 ± 6850 nM
"(S)-2-(4-((4-Aminophenyl)sulfonyl)-2-oxopiperazin-1-yl)-N-(2-(3,5-difluorophenyl)-1-(3-(4-methoxyphenyl)-7-(methylsulfonyl)-4-oxo-3,4-dihydroquinazolin-2-yl)ethyl)acetamide [12e2]",SI ROD (CC50/EC50),"HIV-2 ROD; HIV-2 ROD, MT-4 cells",>1041.67
same,EC50,HIV-2 ROD; [14],150 ± 30 nM
same,SI IIIB (CC50/EC50),HIV-1 IIIB,>235.85
same,Ratio IIIB(EC50)/ROD(EC50),HIV-1 IIIB,4.53
same,CC50,MT-4 cells,> 160000 nM
"O=C(CN1CCN(S(=O)(=O)c2ccc([N+](=O)[O-])cc2)CC1=O)N[C@@H](Cc1ccccc1)c1nc2ccccc2c(=O)n1-c1ccc(S(=O)(=O)N2CCOCC2)cc1 [20a1, (S)-N-(1-(3-(4-(Morpholinosulfonyl)phenyl)-4-oxo-3,4-dihydroquinazolin-2-yl)-2-phenylethyl)-2-(4-((4-nitrophenyl)-sulfonyl)-2-oxopiperazin-1-yl)acetamide]",SI ROD (CC50/EC50),"HIV-2 ROD; HIV-2 ROD, MT-4 cells",>416.67
same,EC50,HIV-2 ROD; [14],370 ± 90 nM
same,SI IIIB (CC50/EC50),HIV-1 IIIB,>126.26
same,Ratio IIIB(EC50)/ROD(EC50),HIV-1 IIIB,3.27
same,CC50,MT-4 cells,> 153000 nM
"(S)-2-(4-((4-Aminophenyl)sulfonyl)-2-oxopiperazin-1-yl)-N-(1-(3-(4-methoxyphenyl)-7-(methylsulfonyl)-4-oxo-3,4-dihydroquinazolin-2-yl)-2-phenylethyl)acetamide [12e1]",SI ROD (CC50/EC50),"HIV-2 ROD; HIV-2 ROD, MT-4 cells",>480.77
same,EC50,HIV-2 ROD; [14],350 ± 30 nM
same,SI IIIB (CC50/EC50),HIV-1 IIIB,>43.71
same,Ratio IIIB(EC50)/ROD(EC50),HIV-1 IIIB,10.97
same,CC50,MT-4 cells,> 168000 nM
"Nc1ccc(S(=O)(=O)N2CCN(CC(=O)N[C@@H](Cc3ccccc3)c3nc4ccccc4c(=O)n3-c3ccc(S(=O)(=O)N4CCS(=O)(=O)CC4)cc3)C(=O)C2)cc1 [21b1, (S)-2-(4-((4-Aminophenyl)sulfonyl)-2-oxopiperazin-1-yl)-N-(1-(3-(4-((1,1-dioxidothiomorpholino)sulfonyl)phenyl)-4-oxo-3,4-dihydroquinazolin-2-yl)-2-phenylethyl)acetamide]",SI ROD (CC50/EC50),"HIV-2 ROD; HIV-2 ROD, MT-4 cells",>277.78
same,EC50,HIV-2 ROD; [14],540 ± 130 nM
same,SI IIIB (CC50/EC50),HIV-1 IIIB,>75.76
same,Ratio IIIB(EC50)/ROD(EC50),HIV-1 IIIB,3.67
same,CC50,MT-4 cells,> 150000 nM
"COc1ccc(-n2c([C@H](Cc3ccccc3)NC(=O)CN3CCN(S(=O)(=O)c4ccc(N)cc4)CC3=O)nc3cc(F)ccc3c2=O)cc1 [12b1, (S)-2-(4-((4-Aminophenyl)sulfonyl)-2-oxopiperazin-1-yl)-N-(1-(7-fluoro-3-(4-methoxyphenyl)-4-oxo-3,4-dihydroquinazolin-2-yl)-2-phenylethyl)acetamide]",SI ROD (CC50/EC50),"HIV-2 ROD; HIV-2 ROD, MT-4 cells",>1250.00
same,EC50,HIV-2 ROD; [14],150 ± 30 nM
same,SI IIIB (CC50/EC50),HIV-1 IIIB,>223.21
same,Ratio IIIB(EC50)/ROD(EC50),HIV-1 IIIB,5.47
same,CC50,MT-4 cells,> 183000 nM
"COc1ccc(-n2c([C@H](Cc3ccccc3)NC(=O)CN3CCN(S(=O)(=O)c4ccc([N+](=O)[O-])cc4)CC3=O)nc3cc(Br)ccc3c2=O)cc1 [11d1, (S)-N-(1-(7-Bromo-3-(4-methoxyphenyl)-4-oxo-3,4-dihydroquinazolin-2-yl)-2-phenylethyl)-2-(4-((4-nitrophenyl)sulfonyl)-2-oxopiperazin-1-yl)acetamide]",SI ROD (CC50/EC50),"HIV-2 ROD; HIV-2 ROD, MT-4 cells",>446.43
same,EC50,HIV-2 ROD; [14],360 ± 30 nM
same,SI IIIB (CC50/EC50),HIV-1 IIIB,>67.20
same,Ratio IIIB(EC50)/ROD(EC50),HIV-1 IIIB,6.67
same,CC50,MT-4 cells,> 161000 nM
